Assays:
[1] = test system: DOHH2 cells; assay: Cell proliferation assay (MTS), DOHH2 cells, 120 h; type: cell-based; details: Homo sapiens, DOHH-2, 120 h
Method in brief: (§1)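 RS4;11 and DOHH2 cells at 5000 cells/well in RPMI-1640 with 10% FBS were treated with compound at 1.5–10000 nM final, nine points, at 37 °C, 5% CO2. Exposure was 72 h for RS4;11 and 120 h for DOHH2. MTS was added for 2 h, absorbance read at 490/650 nm, and IC50 calculated.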

[2] = test system: RS4;11 cells; assay: Cell proliferation assay (MTS), RS4;11 cells, 72 h; type: cell-based; details: Homo sapiens, RS4-11, 72 h
Method in brief: as §1

Compound | IC50 [1] [nM] | IC50 [2] [nM]
CC1(C)CCC(CN2CCN(c3ccc(C(=O)NS(=O)(=O)c4cc5c(c([N+](=O)[O-])c4)N[C@H](CCN=S(C)(C)=O)CO5)c(Oc4cnc5[nH]ccc5c4)c3)CC2)=C(c2ccc(Cl)cc2)C1 [Example 2-33, (R)-2-((1H-pyrrolo[2,3-b]pyridin-5-yl)oxy)-4-(4-((4′-chloro-5,5-dimethyl-3,4,5,6-tetra-hydro-[1,1′-biphenyl]-2-yl)methyl)piperazin-1-yl)-N-((3-(2-((dimethyl(oxo)-l6-sulfanyl-idene)amino)ethyl)-5-nitro-3,4-dihydro-2H-benzo[b][1,4]oxazin-7-yl)sulfonyl)benza-mide] | 25 | 11
C[C@H]1CN(CC[C@@H]2COc3cc(S(=O)(=O)NC(=O)c4ccc(N5CCN(CC6=C(c7ccc(Cl)cc7)CC(C)(C)CC6)CC5)cc4Oc4cnc5[nH]ccc5c4)cc([N+](=O)[O-])c3N2)CCN1C [Example 2-37, 2-((1H-pyrrolo[2,3-b]pyridin-5-yl)oxy)-4-(4-((4′-chloro-5,5-dimethyl-3,4,5,6-tetrahydro-[1,1′-biphenyl]-2-yl)methyl)piperazin-1-yl)-N-(((R)-3-(2-((S)-3,4-dimethylpiperazin-1-yl)ethyl)-5-nitro-3,4-dihydro-2H-benzo [b][1,4]oxazin-7-yl)sulfonyl)benzamide] | 25 | 1
C[C@H]1COc2cc(S(=O)(=O)NC(=O)c3ccc(N4CCN(CC5=C(c6ccc(Cl)cc6)CC(C)(C)CC5)CC4)cc3Oc3cnc4[nH]ccc4c3)cc([N+](=O)[O-])c2N1 [Example 2-111, (S)-2-((1H-pyrrolo[2,3-b]pyridin-5-yl)oxy)-4-(4-((4′-chloro-5,5-dimethyl-3,4,5,6-tetra-hydro-[1,1′-biphenyl]-2-yl)methyl)piperazin-1-yl)-N-((3-methyl-5-nitro-3,4-dihydro-2H-benzo[b][1,4]oxazin-7-yl)sulfonyl)benza-mide] | 26 | 28
CC1(C)CCC(CN2CCN(c3ccc(C(=O)NS(=O)(=O)c4cc5c(c([N+](=O)[O-])c4)N[C@H](C4CCOCC4)CO5)c(Oc4cnc5[nH]ccc5c4)c3)CC2)=C(c2ccc(Cl)cc2)C1 [Example 2-186, (R)-2-((1H-pyrrolo[2,3-b]pyridin-5-yl)oxy)-4-(4-((4′-chloro-5,5-dimethyl-3,4,5,6-tetra-hydro-[1,1′-biphenyl]-2-yl)methyl)piperazin-1-yl)-N-((5-nitro-3-(tetrahydro-2H-pyran-4-yl)-3,4-dihydro-2H-benzo[b][1,4]oxazin-7-yl)sulfonyl)benzamide] | 13 | 1
CC1(C)CCC(CN2CCN(c3ccc(C(=O)NS(=O)(=O)c4cc5c(c([N+](=O)[O-])c4)N[C@H](CC4CCNCC4)CO5)c(Oc4cnc5[nH]ccc5c4)c3)CC2)=C(c2ccc(Cl)cc2)C1 [Example 2-214, (R)-2-((1H-pyrrolo[2,3-b]pyridin-5-yl)oxy)-4-(4-((4′-chloro-5,5-dimethyl-3,4,5,6-tetra-hydro-[1,1′-biphenyl]-2-yl)methyl)piperazin-1-yl)-N-((5-nitro-3-(piperidin-4-ylmethyl)-3,4-dihydro-2H-benzo[b][1,4]oxazin-7-yl)sulfonyl)benzamide] | 465 | 16
CC1(C)CCC(CN2CCN(c3ccc(C(=O)NS(=O)(=O)c4cc5c(c([N+](=O)[O-])c4)N[C@@H](COC4CCOCC4)CO5)c(Oc4cnc5[nH]ccc5c4)c3)CC2)=C(c2ccc(Cl)cc2)C1 [Example 2-183, (S)-2-((1H-pyrrolo[2,3-b]pyridin-5-yl)oxy)-4-(4-((4′-chloro-5,5-dimethyl-3,4,5,6-tetra-hydro-[1,1′-biphenyl]-2-yl)methyl)piperazin-1-yl)-N-((5-nitro-3-(((tetrahydro-2H-pyran-4-yl)oxy)methyl)-3,4-dihydro-2H-benzo [b][1,4]oxazin-7-yl)sulfonyl)benzamide] | 20 | 4

Source: patent US11091478B2 (Fochon Pharmaceuticals, Ltd., priority 2017, dated 2021)
